Measured values taken from patent publication US7928060B2, “Amylin family polypeptide-6 (AFP-6) analogs and methods of making and using them” (Amylin Pharmaceuticals, Inc., priority 2004, dated 2011).
Bridge positions count the residues as written; N and C are the ends. Peptide text beside a SMILES is read from it.

Key:
[1] = molecular target: adrenomedullin receptor (Homo sapiens, UniProt O60895+Q16602); assay: adrenomedullin (ADM) receptor binding assay; conditions: Table 6
[2] = molecular target: T1, calcitonin receptor (Rattus norvegicus, UniProt P32214); assay: calcitonin receptor binding assay (rCalcitonin RBA); conditions: Table 6; read-out: CT receptor binding
T1 sequence (P32214 25-516): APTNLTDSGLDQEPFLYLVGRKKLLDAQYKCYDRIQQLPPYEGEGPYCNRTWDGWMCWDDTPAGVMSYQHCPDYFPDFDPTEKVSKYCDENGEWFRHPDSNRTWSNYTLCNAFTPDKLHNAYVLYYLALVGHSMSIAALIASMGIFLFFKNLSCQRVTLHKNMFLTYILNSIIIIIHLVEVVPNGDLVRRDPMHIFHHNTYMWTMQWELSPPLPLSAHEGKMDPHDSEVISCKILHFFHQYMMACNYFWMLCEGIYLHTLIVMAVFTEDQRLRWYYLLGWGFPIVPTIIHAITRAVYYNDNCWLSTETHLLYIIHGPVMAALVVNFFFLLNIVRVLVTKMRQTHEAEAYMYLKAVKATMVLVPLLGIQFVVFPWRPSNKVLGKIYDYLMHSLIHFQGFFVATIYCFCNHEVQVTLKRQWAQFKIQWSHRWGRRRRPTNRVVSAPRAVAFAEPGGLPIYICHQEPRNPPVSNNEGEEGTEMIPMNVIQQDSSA

Sequence of adrenomedullin receptor (Q16602 23-461): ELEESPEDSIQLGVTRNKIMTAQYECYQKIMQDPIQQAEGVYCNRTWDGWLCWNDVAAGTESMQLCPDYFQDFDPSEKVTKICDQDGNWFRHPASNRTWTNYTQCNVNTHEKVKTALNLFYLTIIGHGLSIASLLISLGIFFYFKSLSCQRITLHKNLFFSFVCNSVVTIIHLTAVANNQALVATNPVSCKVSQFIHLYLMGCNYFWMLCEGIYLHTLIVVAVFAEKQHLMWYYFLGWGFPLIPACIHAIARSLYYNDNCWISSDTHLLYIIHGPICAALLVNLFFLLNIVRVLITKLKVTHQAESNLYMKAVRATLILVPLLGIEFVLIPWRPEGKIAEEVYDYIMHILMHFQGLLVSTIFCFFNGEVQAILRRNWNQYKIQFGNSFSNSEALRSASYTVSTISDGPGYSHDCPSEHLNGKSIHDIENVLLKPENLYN
Sequence of adrenomedullin receptor (O60895 43-175): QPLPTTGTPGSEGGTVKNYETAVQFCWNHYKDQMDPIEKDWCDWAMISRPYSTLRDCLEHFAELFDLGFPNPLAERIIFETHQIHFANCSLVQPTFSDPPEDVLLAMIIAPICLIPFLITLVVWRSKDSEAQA

Row | SMILES | IC50 [1] | IC50 [2]
1 | CSCC[C@H](NC(=O)[C@H](CC(C)C)NC(=O)[C@H](CCC(N)=O)NC(=O)[C@H](Cc1c[nH]c2ccccc12)NC(=O)[C@H](CC(C)C)NC(=O)[C@H](CCCNC(=N)N)NC(=O)[C@H](Cc1c[nH]cn1)NC(=O)[C@H](CO)NC(=O)[C@H](CC(C)C)NC(=O)[C@H](CC(N)=O)NC(=O)[C@H](CCC(N)=O)NC(=O)[C@@H](NC(=O)[C@H](CCC(N)=O)NC(=O)[C@@H]1CSSC[C@H](NC(=O)CNC(=O)[C@@H](NC(=O)[C@@H](N)CCCNC(=N)N)C(C)C)C(=O)N[C@@H](C(C)C)C(=O)N[C@@H](CC(C)C)C(=O)NCC(=O)N[C@@H]([C@@H](C)O)C(=O)N1)C(C)C)C(=O)NCC(=O)N1CCC[C@H]1C(=O)N[C@@H](C)C(=O)NCC(=O)N[C@@H](CCCNC(=N)N)C(=O)N[C@@H](CCC(N)=O)C(=O)N[C@@H](CC(=O)O)C(=O)N[C@@H](CO)C(=O)N[C@@H](C)C(=O)N1CCC[C@H]1C(=O)N[C@H](C(=O)N[C@@H](CC(=O)O)C(=O)N1CCC[C@H]1C(=O)N[C@@H](CO)C(=O)N[C@@H](CO)C(=O)N1CCC[C@H]1C(=O)N[C@@H](Cc1c[nH]cn1)C(=O)N[C@@H](CO)C(=O)N[C@@H](Cc1ccc(O)cc1)C(N)=O)C(C)C [compound 10] | 7.1 nM | 55 nM
2 | CSCC[C@H](NC(=O)[C@H](CC(C)C)NC(=O)[C@H](CCC(N)=O)NC(=O)[C@H](Cc1c[nH]c2ccccc12)NC(=O)[C@H](CC(C)C)NC(=O)[C@H](CCCNC(=N)N)NC(=O)[C@H](Cc1c[nH]cn1)NC(=O)[C@H](CO)NC(=O)[C@H](CC(C)C)NC(=O)[C@H](CC(N)=O)NC(=O)[C@H](CCC(N)=O)NC(=O)[C@@H](NC(=O)[C@H](CCC(N)=O)NC(=O)[C@@H]1CSSC[C@H](NC(=O)CN)C(=O)N[C@@H](C(C)C)C(=O)N[C@@H](CC(C)C)C(=O)NCC(=O)N[C@@H]([C@@H](C)O)C(=O)N1)C(C)C)C(=O)NCC(=O)N1CCC[C@H]1C(=O)N[C@@H](C)C(=O)NCC(=O)N[C@@H](CCCNC(=N)N)C(=O)N[C@@H](CCC(N)=O)C(=O)N[C@@H](CC(=O)O)C(=O)N[C@@H](CO)C(=O)N[C@@H](C)C(=O)N1CCC[C@H]1C(=O)N[C@H](C(=O)N[C@@H](CC(=O)O)C(=O)N1CCC[C@H]1C(=O)N[C@@H](CO)C(=O)N[C@@H](CO)C(=O)N1CCC[C@H]1C(=O)N[C@@H](Cc1c[nH]cn1)C(=O)N[C@@H](CO)C(=O)N[C@@H](Cc1ccc(O)cc1)C(N)=O)C(C)C [compound 11] (H-GCVLGTCQVQNLSHRLWQLMGPAGRQDSAPVDPSSPHSY-NH2; disulfide 2-7 (inferred); N-terminus assumed) | 11 nM | 27 nM
3 | CSCC[C@H](NC(=O)[C@H](CC(C)C)NC(=O)[C@H](CCC(N)=O)NC(=O)[C@H](Cc1c[nH]c2ccccc12)NC(=O)[C@H](CC(C)C)NC(=O)[C@H](CCCNC(=N)N)NC(=O)[C@H](Cc1c[nH]cn1)NC(=O)[C@H](CO)NC(=O)[C@H](CC(C)C)NC(=O)[C@H](CC(N)=O)NC(=O)[C@H](CCC(N)=O)NC(=O)[C@@H](NC(=O)[C@H](CCC(N)=O)NC(=O)[C@@H]1CSSC[C@H](N)C(=O)N[C@@H](C(C)C)C(=O)N[C@@H](CC(C)C)C(=O)NCC(=O)N[C@@H]([C@@H](C)O)C(=O)N1)C(C)C)C(=O)NCC(=O)N1CCC[C@H]1C(=O)N[C@@H](C)C(=O)NCC(=O)N[C@@H](CCCNC(=N)N)C(=O)N[C@@H](CCC(N)=O)C(=O)N[C@@H](CC(=O)O)C(=O)N[C@@H](CO)C(=O)N[C@@H](C)C(=O)N1CCC[C@H]1C(=O)N[C@H](C(=O)N[C@@H](CC(=O)O)C(=O)N1CCC[C@H]1C(=O)N[C@@H](CO)C(=O)N[C@@H](CO)C(=O)N1CCC[C@H]1C(=O)N[C@@H](Cc1c[nH]cn1)C(=O)N[C@@H](CO)C(=O)N[C@@H](Cc1ccc(O)cc1)C(N)=O)C(C)C [compound 12] (H-CVLGTCQVQNLSHRLWQLMGPAGRQDSAPVDPSSPHSY-NH2; disulfide 1-6 (inferred); N-terminus assumed) | 18 nM | 198 nM
4 | CC(C)C[C@H](NC(=O)[C@H](CCC(N)=O)NC(=O)[C@H](C)NC(=O)[C@H](CCC(N)=O)NC(=O)[C@@H](N)[C@@H](C)O)C(=O)N[C@@H](CC(C)C)C(=O)N[C@@H](CCCNC(=N)N)C(=O)N[C@H](C(=O)NCC(=O)N[C@H]1CSSC[C@@H](C(=O)N[C@@H](CCC(N)=O)C(=O)N[C@H](C(=O)N[C@@H](CCC(N)=O)C(=O)N[C@@H](CC(N)=O)C(=O)N[C@@H](CC(C)C)C(=O)N[C@@H](CO)C(=O)N[C@@H](Cc2c[nH]cn2)C(=O)N[C@@H](CCCNC(=N)N)C(=O)N[C@@H](CC(C)C)C(=O)N[C@@H](Cc2c[nH]c3ccccc23)C(=O)N[C@@H](CCC(N)=O)C(=O)N[C@@H](CC(C)C)C(=O)N[C@@H](CC(=O)O)C(=O)N[C@@H](CO)C(=O)N[C@@H](C)C(=O)N2CCC[C@H]2C(=O)N[C@H](C(=O)N[C@@H](CC(=O)O)C(=O)N2CCC[C@H]2C(=O)N[C@@H](CO)C(=O)N[C@@H](CO)C(=O)N2CCC[C@H]2C(=O)N[C@@H](Cc2c[nH]cn2)C(=O)N[C@@H](CO)C(=O)N[C@@H](Cc2ccc(O)cc2)C(N)=O)C(C)C)C(C)C)NC(=O)[C@H]([C@@H](C)O)NC(=O)CNC(=O)[C@H](CC(C)C)NC(=O)[C@H](C(C)C)NC1=O)C(C)C [compound 17] (H-TQAQLLRVGCVLGTCQVQNLSHRLWQLDSAPVDPSSPHSY-NH2; disulfide 10-15 (inferred); N-terminus assumed) | 304 nM | > 1000 nM
5 | CC(C)C[C@H](NC(=O)[C@H](CCC(N)=O)NC(=O)[C@H](Cc1c[nH]c2ccccc12)NC(=O)[C@H](CC(C)C)NC(=O)[C@H](CCCNC(=N)N)NC(=O)[C@H](Cc1c[nH]cn1)NC(=O)[C@H](CO)NC(=O)[C@H](CC(C)C)NC(=O)[C@H](CC(N)=O)NC(=O)[C@H](CCC(N)=O)NC(=O)[C@@H](NC(=O)[C@H](CCC(N)=O)NC(=O)[C@@H]1CSSC[C@H](NC(=O)CNC(=O)[C@@H](N)C(C)C)C(=O)N[C@@H](C(C)C)C(=O)N[C@@H](CC(C)C)C(=O)NCC(=O)N[C@@H]([C@@H](C)O)C(=O)N1)C(C)C)C(=O)N[C@@H](CCCNC(=N)N)C(=O)N[C@@H](CCC(N)=O)C(=O)N[C@@H](CC(=O)O)C(=O)N[C@@H](CO)C(=O)N[C@@H](C)C(=O)N1CCC[C@H]1C(=O)N[C@H](C(=O)N[C@@H](CC(=O)O)C(=O)N1CCC[C@H]1C(=O)N[C@@H](CO)C(=O)N[C@@H](CO)C(=O)N1CCC[C@H]1C(=O)N[C@@H](Cc1c[nH]cn1)C(=O)N[C@@H](CO)C(=O)N[C@@H](Cc1ccc(O)cc1)C(N)=O)C(C)C [compound 18] (H-VGCVLGTCQVQNLSHRLWQLRQDSAPVDPSSPHSY-NH2; disulfide 3-8 (inferred); N-terminus assumed) | ≥ 1000 nM | 24 nM
6 | CC(C)C[C@H](NC(=O)[C@H](CCC(N)=O)NC(=O)[C@H](Cc1c[nH]c2ccccc12)NC(=O)[C@H](CC(C)C)NC(=O)[C@H](CCCNC(=N)N)NC(=O)[C@H](Cc1c[nH]cn1)NC(=O)[C@H](CO)NC(=O)[C@H](CC(C)C)NC(=O)[C@H](CC(N)=O)NC(=O)[C@H](CCC(N)=O)NC(=O)[C@@H](NC(=O)[C@H](CCC(N)=O)NC(=O)[C@@H]1CSSC[C@H](N)C(=O)N[C@@H](C(C)C)C(=O)N[C@@H](CC(C)C)C(=O)NCC(=O)N[C@@H]([C@@H](C)O)C(=O)N1)C(C)C)C(=O)N[C@@H](CCCNC(=N)N)C(=O)N[C@@H](CCC(N)=O)C(=O)N[C@@H](CCC(=O)O)C(=O)N[C@@H](CO)C(=O)N[C@@H](C)C(=O)N1CCC[C@H]1C(=O)N[C@H](C(=O)N[C@@H](CCC(=O)O)C(=O)N1CCC[C@H]1C(=O)N[C@@H](CO)C(=O)N[C@@H](CO)C(=O)N1CCC[C@H]1C(=O)N[C@@H](Cc1c[nH]cn1)C(=O)N[C@@H](CO)C(=O)N[C@@H](Cc1ccc(O)cc1)C(N)=O)C(C)C [compound 19] (H-CVLGTCQVQNLSHRLWQLRQESAPVEPSSPHSY-NH2; disulfide 1-6 (inferred); N-terminus assumed) | ≥ 1000 nM | 247 nM
7 | CC(C)C[C@H](NC(=O)[C@H](CCC(N)=O)NC(=O)[C@H](Cc1c[nH]c2ccccc12)NC(=O)[C@H](CC(C)C)NC(=O)[C@H](CCCNC(=N)N)NC(=O)[C@H](Cc1c[nH]cn1)NC(=O)[C@H](CO)NC(=O)[C@H](CC(C)C)NC(=O)[C@H](CC(N)=O)NC(=O)[C@H](CCC(N)=O)NC(=O)[C@@H](NC(=O)[C@H](CCC(N)=O)NC(=O)[C@@H]1CSSC[C@H](NC(=O)CN)C(=O)N[C@@H](CO)C(=O)N[C@@H](CC(N)=O)C(=O)N[C@@H](CC(C)C)C(=O)N[C@@H](CO)C(=O)N[C@@H]([C@@H](C)O)C(=O)N1)C(C)C)C(=O)N[C@@H](CCCNC(=N)N)C(=O)N[C@@H](CCC(N)=O)C(=O)N[C@@H](CC(=O)O)C(=O)N[C@@H](CO)C(=O)N[C@@H](C)C(=O)N1CCC[C@H]1C(=O)N[C@H](C(=O)N[C@@H](CCC(=O)O)C(=O)N1CCC[C@H]1C(=O)N[C@@H](CO)C(=O)N[C@@H](CO)C(=O)N1CCC[C@H]1C(=O)N[C@@H](Cc1c[nH]cn1)C(=O)N[C@@H](CO)C(=O)N[C@@H](Cc1ccc(O)cc1)C(N)=O)C(C)C [compound 38] (H-GCSNLSTCQVQNLSHRLWQLRQDSAPVEPSSPHSY-NH2; disulfide 2-8 (inferred); N-terminus assumed) |  | 17 nM
